Source: ChEMBL document CHEMBL3507680, “University of Dundee, Gates Library screen for HepG2 cell viability”

Experiment: Human HepG2 cell viability assay in 384 well format
Assay type: toxicity, cell-based
Design: dose 125 nL, time 70.5 hour; cytotoxicity at 70.5 h: concentration not given beside the values
Details: HepG2 cells, read-out: Inhibition

Compound	cytotoxicity at 70.5 h
Cc1nnsc1C(=O)N1CCCCC1c1cc2nc(C)c(C)c(O)n2n1 (stereo not drawn)	-2.13%
Fc1ccc(CN2CCC(c3noc(-c4cnccn4)n3)CC2)cc1F	-1.05%
Fc1ccccc1CN1CCC(c2noc(-c3ccccn3)n2)CC1	1.88%
O=C(C1CCOC1)N1Cc2ccccc2OC2(CCOCC2)C1 (stereo not drawn)	-2.81%
Fc1cccc(CN2CCC(c3noc(-c4ccncc4)n3)CC2)c1F	2.58%
COc1cc2cc3c(nc2cc1OC)OCCN(Cc1cccs1)C3	28%
COc1cccc(CNCc2nc3ccccc3c(=O)[nH]2)c1	1.76%
Cc1cnc(-c2nc(O)c3c(n2)CN(C(=O)C2CCOC2)CC3)cn1 (stereo not drawn)	-1.76%
Cc1cnc(-c2nc(O)c3c(n2)CN(C(=O)CC2CCCC2)CC3)cn1	-2.15%
CC1Cc2ccccc2N1C(=O)Cn1nc(-c2cccs2)cc(N)c1=O (stereo not drawn)	-3.41%
Cc1nc2cc(C(=O)N3CCn4c(nnc4C4CC4)C3)ccc2s1	-2.23%
c1cc(N2CCCCC2)ccc1-c1noc(CN2CCOCC2)n1	-0.0335%
Cc1nc2ccc(C(=O)N3CCC(COc4ccccn4)CC3)cc2[nH]1	44.6%
Cc1ccc(CNCCN2CCOCC2)o1	8.67%
CCNC(=O)C1(Cc2ccc(-c3ccccc3)cc2)CCCNC1 (stereo not drawn)	4.78%
CN1CCC(c2cccc(-c3cccc(C(=O)O)c3)n2)CC1	-8.16%
Clc1ccc(CN(CCN2CCOCC2)Cc2cccnc2)cc1Cl	-5.5%
Cc1ccc(N(C)[C@@H]2CC[C@@H]3CN(C(=O)C4CCOCC4)C[C@@H]32)nn1	-6.01%
O=C(Cc1ccc(O)cc1)N1CCCC(O)(CN2CCOCC2)CC1 (stereo not drawn)	-7.8%
CS(=O)(=O)N[C@@H]1CN(C(=O)c2cc3ccccc3s2)C[C@H]1O	19%
COc1ccc2[nH]cc(C(=O)N3C[C@@H](O)[C@H](NS(C)(=O)=O)C3)c2c1	-6.21%
OCCN1CCCCC1c1cc[nH]n1 (stereo not drawn)	-8.74%
CCOCC(=O)N1C[C@@H](O)[C@H](NC(C)=O)C1	-4.78%
CO[C@H]1CN(S(=O)(=O)c2ccc(C)cc2)C[C@@]12CCCO2	-6.6%

Compound	cytotoxicity at 70.5 h
Cc1cc(CC2COCCN(CCc3ccccc3)C2)ncn1 (stereo not drawn)	17.8%
CCn1ccc2ccnc(CC3CN(C(=O)c4ccc(F)cc4)C3)c21	-6.52%
CC(=O)N1CCN([C@@H]2CN(C(=O)Cc3ccccc3C)C[C@H]2O)CC1	-2.44%
NC(=O)c1cnc(NCC(=O)NCc2ccco2)c(Cl)c1	-9.01%
CSc1cc2c(cc1NC(=O)NCc1ccncc1)OCCO2	2.15%
CSc1cc2c(cc1NC(=O)N(C)Cc1cnn(C)c1)OCCO2	2.84%
COCCN(C)C(=O)Nc1cc2c(cc1SC)OCCO2	10.9%
CC(NC1(CNS(C)(=O)=O)CCOCC1)c1ccccc1 (stereo not drawn)	-8.35%
CCCS(=O)(=O)NC(C)c1cccc(-n2cccn2)c1 (stereo not drawn)	-6.77%
Cc1nc(NC(=O)NCc2cccnc2NCCN(C)C)sc1C	-2.85%
CNC(=O)CNC(=O)Nc1ccc(Br)c(F)c1	-4.08%
CCC(NC(=O)c1ccco1)c1nc(C(F)(F)F)cs1 (stereo not drawn)	-6.77%
CC(=O)NCC(=O)N(CCc1ccccc1)C1CCOC1 (stereo not drawn)	-9.4%
N#Cc1cccc(OC2CCN(C(=O)c3cncc(O)c3)CC2)c1	-2.58%
Cc1nnc(NCc2ccc(Br)cc2)o1	-4.41%
Cc1nnc(NCc2ccc(Cl)cc2)o1	-6.23%
CC(NS(=O)(=O)CC1(C#N)CCCC1)c1cccc(-n2cccn2)c1 (stereo not drawn)	-3.64%
OCCCN1CCCC1c1ccc(Br)cc1 (stereo not drawn)	-9.27%
CNC(=O)c1cccc(CNC2CCCSc3ccccc32)c1 (stereo not drawn)	-5.82%
O=C(NCCc1nncn1C1CC1)C1(Cc2ccccc2)CCC1	-1.53%
CC(C(=O)N(C)Cc1ccc(Br)o1)n1cccn1 (stereo not drawn)	-4.49%
CC(OCC1CC1)C(=O)N1CCCN(c2cccnn2)CC1 (stereo not drawn)	-5.5%
CC(C)(CNC(=O)Nc1ccc(S(=O)(=O)C(F)F)cc1)N1CCOCC1	-7.87%
CS(=O)(=O)N1CCN(C(=O)CCC2CCCO2)CC1 (stereo not drawn)	-14.1%

Compound	cytotoxicity at 70.5 h
N#Cc1cn(C2CC2)c(=O)n(Cc2noc(-c3cccs3)n2)c1=O	-4.93%
CC(OCc1ccccc1)C(=O)NC1CCN(CC(N)=O)CC1 (stereo not drawn)	-6.55%
COc1ccc(NC(=O)CN2CCS(=O)(=O)CC2)cn1	-10.4%
CC(=O)NC1CCCN(C(=O)CCc2cccnc2)C1 (stereo not drawn)	19.2%
Cc1ccc(F)c(S(=O)(=O)NCc2[nH]ncc2Br)c1	-10%
CC(C)(C)CC(=O)N1CSCC1C(=O)NC1=NCCS1 (stereo not drawn)	19.4%
CSCCC(C)NC(=O)c1cccc(-c2n[nH]c(C)n2)c1 (stereo not drawn)	-6.77%
CNC(=O)C(CC(C)C)NC(=O)c1cccc(-c2n[nH]c(C)n2)c1 (stereo not drawn)	0.903%
Brc1ccc(CN2CCC(NCc3ncc[nH]3)CC2)cc1	-0.173%
COC(=O)[C@H](C)NC(=O)Cc1c(C)nc2cc(=O)[nH]n2c1C	-7.8%
CS(=O)(=O)NCc1ccc2c(c1)CCC2	-7.69%
CC(C)c1noc(CCC(=O)N(CC2CCOC2)C2CC2)n1 (stereo not drawn)	-8.06%
Cc1ccc(N2CCCN(C(=O)C(C)OCC3CC3)CC2)nn1 (stereo not drawn)	-11.3%
CC(C)(C)c1nnc(CSc2ccccn2)o1	-6.49%
CCc1nnc(CSc2ccccn2)o1	-9.38%
Clc1cc(Cl)cc(CN2CCC(NCc3cc[nH]n3)CC2)c1	-4.79%
CC(C)(C)CN(CCC#N)C(=O)c1cccc(CN2CCCC2)c1	4.22%
CCn1cc(NC(=O)NCCN2CCCCCC2=O)cn1	-6.34%
CCCn1ccnc1-c1cccc(NC2CCOC2)c1 (stereo not drawn)	-1.36%
CCCN(Cc1nnnn1C1CC1)CC1COc2ccccc2O1 (stereo not drawn)	0.609%
O=C(NCc1nnc2n1CCC2)c1cn(-c2ccccc2Br)nn1	-2.93%
N#Cc1cccnc1NCCc1cc(F)cc2c1OCOC2	24%
O=C(Cc1c(F)cccc1Cl)NC1CCCCNC1=O (stereo not drawn)	-5.89%
Cc1ccc(-n2cc(C(=O)NCc3nnc4n3CCCCC4)nn2)cc1	-3.85%

Compound	cytotoxicity at 70.5 h
CCn1cc(NC(=O)NCCN2CCCc3ccccc32)cn1	0.821%
FC(F)(F)Oc1cccc(CNCc2ccc(-n3cncn3)nc2)c1	26.6%
CC(C)C(CCO)NC(=O)Nc1ccc(-c2csnn2)cc1 (stereo not drawn)	-5.31%
COc1cccc(F)c1C(C)NC(=O)NCc1cnc(C)s1 (stereo not drawn)	-1.56%
CC(C)(C)NC(=O)CNc1ncc(Br)cn1	0.722%
N#Cc1cc(S(N)(=O)=O)ccc1N1CCc2c(Cl)cccc2C1	42.5%
COc1c(C(=O)NC(C)Cc2ccccc2Cl)c(C)nn1C (stereo not drawn)	3.5%
O=S(=O)(NC1CCOC1)c1ccc(C(F)(F)F)nc1 (stereo not drawn)	-2.28%
CCN(CCNS(=O)(=O)N1CCOCC1)C(=O)OC(C)(C)C	30.7%
CCCn1nnnc1CN(CC)CC1COc2ccccc2O1 (stereo not drawn)	2.13%
Cc1nccn1-c1cccc(N2CCC(OCC3CCCCO3)CC2)n1 (stereo not drawn)	-11.6%
COC(=O)c1ncccc1N1CCCCC1	-6.28%
CC(C)Oc1cccc(CN(C)C(=O)Cc2ccon2)c1	4.02%
CN(CC(O)C(F)(F)F)C(=O)Nc1cccc(C(F)F)c1 (stereo not drawn)	-7.43%
Clc1cccc(C(CNCc2cccnc2)N2CCOCC2)c1 (stereo not drawn)	29.7%
Cc1cnn(Cc2ccc(NC(=O)N3CCCCC3CO)cc2)c1 (stereo not drawn)	24.6%
Cc1ccc(C(C)(O)CNC(=O)NCCc2ccc3c(c2)CCO3)o1 (stereo not drawn)	26.1%
COc1cc(CNC(=O)c2cc(Cl)ccc2F)ccn1	-5.8%
COc1cc(CNC(=O)c2cc(S(C)(=O)=O)ccc2C)ccn1	-10.5%
COc1cc(C#N)ccc1OCC(=O)NS(=O)(=O)c1cccnc1	-7.29%
CCS(=O)(=O)Cc1csc(-c2ccc(S(C)(=O)=O)cc2)n1	-6.86%
Cc1ccc(NC(C(N)=O)c2ccc(F)cc2)cc1 (stereo not drawn)	-0.0602%
COc1cc(C#N)ccc1OCC(=O)NS(=O)(=O)c1ccccc1	-7.96%
CC(C)(C)Oc1ccc(CN)c(C(F)(F)F)c1	6.84%

Compound	cytotoxicity at 70.5 h
CC(CS(C)(=O)=O)N(C)C(=O)NCCCc1ccc(Cl)cc1 (stereo not drawn)	-3.65%
Cc1noc(CCCNC(=O)CNC(=O)c2cc3ccccc3[nH]2)n1	-5.29%
CC(C)(C)c1nccc(N2CCCCC2CNS(C)(=O)=O)n1 (stereo not drawn)	-4.1%
CCCc1csc(-c2ccc(S(C)(=O)=O)cc2)n1	-1.59%
NC(=O)c1cc(C2CC2)nc2ccc(F)cc12	2.17%
Cc1cc(C)c2nc(C3CC3)cc(C(=O)N3CCCC3C(N)=O)c2c1 (stereo not drawn)	26.2%
CC(NC(=O)CCn1cccn1)c1cn(-c2ccccc2)nn1 (stereo not drawn)	-5.23%
COc1ccc(Cl)cc1CCNC(=O)NCc1ccncc1	-0.665%
Cc1cc(C(F)(F)F)c2c(=O)n(Cc3cc(C)on3)n(C)c2n1	-8.02%
CCN(CC)C1CCN(C(=O)NCc2cccc(-n3ccnc3)c2)C1 (stereo not drawn)	-6.04%
O=C(Nc1cnn(Cc2ccc(Cl)cc2)c1)N1CCCC1CO (stereo not drawn)	-7.38%
CCN(CC)C1CCN(C(=O)NCc2cccc(-n3cccn3)c2)C1 (stereo not drawn)	-8.43%
CC(Cc1ccc(Cl)cc1)N(C)C(=O)NCCS(C)(=O)=O (stereo not drawn)	18.5%
Cc1ccccc1Cn1cnc2oc(C)c(C(=O)O)c2c1=O	-11.3%
CN(C)c1cccc(C(=O)Nc2ccn(CCc3ccncc3)n2)c1	-12.6%
CCOC(=O)C1(Cc2ccccc2-c2ccccc2OC)CCNCC1	11%
CC(C)c1cc(C(=O)NCC2CCCN(C(C)C)C2)n(C)n1 (stereo not drawn)	-0.374%
Cc1cccc(CNC(Cc2ccsc2)c2nc(C)c(C)s2)n1 (stereo not drawn)	1.1%
Cc1[nH]c(C2(N)CCCCC2)nc(=O)c1C	-4.13%
CCc1c(C)[nH]c(C2(N)CCCCC2)nc1=O	0.763%
CN(Cc1ccnc2ccccc12)C1CCS(=O)(=O)C1 (stereo not drawn)	-6.17%
CCn1ccc2ccnc(CC3CN(C(=O)Cn4ccnc4C)C3)c21	-5.67%
